Source: US20240132431A1, “METHOD FOR ALKYLATING ACIDIC FUNCTIONAL GROUP” (Chugai Seiyaku Kabushiki Kaisha, priority 2021, published 2024)

Molecular target: T1, Bcl-2 protein (Recombinant Human Bcl-2 Protein) (Homo sapiens, UniProt P10415)
T1 construct: purchased Novus NBP2-34889
Experiment: Binding evaluation of mixture library compounds to Bcl-2 using AS-MS (affinity selection mass spectrometry)
Conditions: for ASMS ratio (%) n = 1: replicate n = 1; for ASMS ratio (%) n = 1 / ASMS ratio (%) n = 2: ASMS Ratio(%)=(A−C)/B×100; for ASMS ratio (%) n = 2: replicate n = 2
Outline: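 Pooled library of ~1200 compounds ([…] each, final) incubated with recombinant human Bcl-2 (20 μM final) in Tris-HCl pH 7.4, NaCl, Tween-20, DTT buffer, dark, 23° C., 1 h. Bound fraction recovered by SEC spin column, organic extraction, reversed-phase LC/MS. ASMS Ratio (%) = (A−C)/B×100 versus protein-free standard and SEC blank.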

[1] = AS-MS on the mixture of 1200 library compounds
[2] = AS-MS, mixture of 1200 compounds, Bcl-2

T1 sequence (P10415 whole entry): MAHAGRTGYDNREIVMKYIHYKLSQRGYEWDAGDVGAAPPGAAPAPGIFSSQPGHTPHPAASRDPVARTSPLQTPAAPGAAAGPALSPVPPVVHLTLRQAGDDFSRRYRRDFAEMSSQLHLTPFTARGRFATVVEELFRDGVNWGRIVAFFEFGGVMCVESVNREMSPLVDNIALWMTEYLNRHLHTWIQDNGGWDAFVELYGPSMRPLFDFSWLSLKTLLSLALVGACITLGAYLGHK

CCOc1cncc(-c2cc(CN3CCN(c4ccc(C(=O)NS(=O)(=O)c5ccc(NCCSc6ccccc6)c([N+](=O)[O-])c5)cc4)CC3)cc(OC(F)(F)F)c2)c1 [B2Q064-01]
ASMS ratio (%) n = 1 (AS-MS, mixture library, Bcl-2): 8.6% | ASMS ratio (%) n = 2 (AS-MS, mixture library, Bcl-2): −1.6%

CCOc1cncc(-c2cc(CN3CCN(c4ccc(C(=O)N(C)CC56CC7CC(CC(C7)C5)C6)cc4)CC3)cc(OC(F)(F)F)c2)c1 [B3A064-01, N-(1-Adamantylmethyl)-4-[4-[[3-(5-ethoxypyridin-3-yl)-5-(trifluoromethoxy)phenyl]methyl]piperazin-1-yl]-N-methylbenzamide]
ASMS ratio (%) n = 1 [1]: −7.5% | ASMS ratio (%) n = 2 [1]: −5.5%

4-[4-[[4-(5-Ethoxypyridin-3-yl)naphthalen-1-yl]methyl]piperazin-1-yl]-N-propylbenzamide [B1M046-01]
ASMS ratio (%) n = 1 [2]: 0.7% | ASMS ratio (%) n = 2 [2]: −1.2%

CCOc1cncc(-c2ccc(C(=O)N3CCN(c4ccc(C(=O)N(C)CC56CC7CC(CC(C7)C5)C6)nn4)CC3)cc2C)c1 [B3A004-01, N-(1-Adamantylmethyl)-6-[4-[4-(5-ethoxypyridin-3-yl)-3-methylbenzoyl]piperazin-1-yl]-N-methylpyridazine-3-carboxamide]
ASMS ratio (%) n = 1 [1]: 3.5% | ASMS ratio (%) n = 2 [1]: −0.5%

CCOc1cncc(-c2cc(C(=O)N3CCN(c4ccc(C(=O)NCC(F)(F)F)nn4)CC3)cc(C(C)(C)C)c2)c1 [B1K016-01, 6-[4-[3-tert-Butyl-5-(5-ethoxypyridin-3-yl)benzoyl]piperazin-1-yl]-N-(2,2,2-trifluoroethyl)pyridazine-3-carboxamide]
ASMS ratio (%) n = 1 [2]: 0.0% | ASMS ratio (%) n = 2 [2]: 0.0%

CCOc1cncc(-c2cnn(-c3cc(C(=O)N4CCN(c5ccc(C(=O)N(CC)CC)cc5)CC4)cc(C(F)(F)F)c3)c2)c1 [B4J044-01, 4-[4-[3-[4-(5-Ethoxypyridin-3-yl)pyrazol-1-yl]-5-(trifluoromethyl)benzoyl]piperazin-1-yl]-N,N-diethylbenzamide]
ASMS ratio (%) n = 1 [1]: 1.8% | ASMS ratio (%) n = 2 [1]: 0.3%

CCOc1cncc(C#Cc2ccccc2CN2CCN(c3ccc(C(=O)NCC(F)(F)F)cc3)CC2)c1 [B1K070-01, 4-[4-[[2-[2-(5-Ethoxypyridin-3-yl)ethynyl]phenyl]methyl]piperazin-1-yl]-N-(2,2,2-trifluoroethyl)benzamide]
ASMS ratio (%) n = 1 [2]: 0.0% | ASMS ratio (%) n = 2 [2]: 0.0%

CCOc1cccc(-c2cnn(-c3cc(C(=O)N4CCN(c5ccc(C(=O)NS(=O)(=O)CC67CC8CC(CC(C8)C6)C7)nn5)CC4)cc(C(F)(F)F)c3)c2)c1 [B2A021-01, N-(1-Adamantylmethylsulfonyl)-6-[4-[3-[4-(3-ethoxyphenyl)pyrazol-1-yl]-5-(trifluoromethyl)benzoyl]piperazin-1-yl]pyridazine-3-carboxamide]
ASMS ratio (%) n = 1 (AS-MS, mixture library, Bcl-2): 14.4% | ASMS ratio (%) n = 2 (AS-MS, mixture library, Bcl-2): 9.4%

CCOc1cccc(-c2cc(C(=O)N3CCN(c4ccc(C(=O)NS(=O)(=O)c5ccc(NCCSc6ccccc6)c(C(F)(F)F)c5)nn4)CC3)cc(C(F)(F)F)c2)c1 [B2R017-01, 6-[4-[3-(3-ethoxyphenyl)-5-(trifluoromethyl)benzoyl]piperazin-1-yl]-N-[4-(2-phenylsulfanylethylamino)-3-(trifluoromethyl)phenyl]sulfonylpyridazine-3-carboxamide]
ASMS ratio (%) (n = 1): 32.9% | ASMS ratio (%) (n = 2): 27.2%

CCOc1cncc(-c2ccc(C(=O)N3CCN(c4ccc(C(=O)NS(=O)(=O)CC56CC7CC(CC(C7)C5)C6)cc4)CC3)cc2F)c1 [B2A028-01, N-(1-Adamantylmethylsulfonyl)-4-[4-[4-(5-ethoxypyridin-3-yl)-3-fluorobenzoyl]piperazin-1-yl]benzamide]
ASMS ratio (%) n = 1 (AS-MS, mixture library, Bcl-2): −1.0% | ASMS ratio (%) n = 2 (AS-MS, mixture library, Bcl-2): 1.2%

CCOc1cccc(-c2ccc(CN3CCN(c4ccc(C(=O)NS(=O)(=O)CCC(F)(F)F)cc4)CC3)c(CC)c2)c1 [B2N049-01, 4-[4-[[4-(3-Ethoxyphenyl)-2-ethylphenyl]methyl]piperazin-1-yl]-N-(3,3,3-trifluoropropylsulfonyl)benzamide]
ASMS ratio (%) (n = 1): 0.0% | ASMS ratio (%) (n = 2): 0.0%

6-[4-[[4-(3-Ethoxyphenyl)-2-methoxyphenyl]methyl]piperazin-1-yl]-N-propylpyridazine-3-carboxamide [B1M094-01]
ASMS ratio (%) n = 1 [1]: −1.5% | ASMS ratio (%) n = 2 [1]: −2.1%

CCOc1cncc(-c2csc(C(=O)N3CCN(c4ccc(C(=O)NS(=O)(=O)CC56CC7CC(CC(C7)C5)C6)nn4)CC3)c2)c1 [B2A002-01, N-(1-Adamantylmethylsulfonyl)-6-[4-[4-(5-ethoxypyridin-3-yl)thiophene-2-carbonyl]piperazin-1-yl]pyridazine-3-carboxamide]
ASMS ratio (%) n = 1 (AS-MS, mixture library, Bcl-2): 0.0% | ASMS ratio (%) n = 2 (AS-MS, mixture library, Bcl-2): 0.0%

CCOc1cncc(-c2cc(OC)c(CN3CCN(c4ccc(C(=O)N(CC)CC)nn4)CC3)c(OC)c2)c1 [B4J086-01, 6-[4-[[4-(5-Ethoxypyridin-3-yl)-2,6-dimethoxyphenyl]methyl]piperazin-1-yl]-N,N-diethylpyridazine-3-carboxamide]
ASMS ratio (%) n = 1 (AS-MS, mixture library, Bcl-2): 0.0% | ASMS ratio (%) n = 2 (AS-MS, mixture library, Bcl-2): 0.0%

CCOc1cncc(-c2ccccc2CN2CCN(c3ccc(C(=O)NS(=O)(=O)CCC(F)(F)F)nn3)CC2)c1 [B2N072-01]
ASMS ratio (%) (n = 1): 0.0% | ASMS ratio (%) (n = 2): 0.1%

CCOc1cccc(-c2cc(CN3CCN(c4ccc(C(=O)N(C)CC56CC7CC(CC(C7)C5)C6)nn4)CC3)cc(OCC)c2)c1 [B3A081-01, N-(1-Adamantylmethyl)-6-[4-[[3-ethoxy-5-(3-ethoxyphenyl)phenyl]methyl]piperazin-1-yl]-N-methylpyridazine-3-carboxamide]
ASMS ratio (%) n = 1 [1]: 13.4% | ASMS ratio (%) n = 2 [1]: −14.2%

4-[4-[[4-(5-Ethoxypyridin-3-yl)-2,6-dimethoxyphenyl]methyl]piperazin-1-yl]-N-propylbenzamide [B1M022-01]
ASMS ratio (%) n = 1 [2]: −13.6% | ASMS ratio (%) n = 2 [2]: 6.7%

CCOc1cccc(-c2ccc(C(C)N3CCN(c4ccc(C(=O)NCC56CC7CC(CC(C7)C5)C6)cc4)CC3)cc2)c1 (centres unmarked) [B1A097-01, N-(1-Adamantylmethyl)-4-[4-[1-[4-(3-ethoxyphenyl)phenyl]ethyl]piperazin-1-yl]benzamide]
ASMS ratio (%) n = 1 [2]: 3.2% | ASMS ratio (%) n = 2 [2]: 2.5%

CCOc1cccc(C#Cc2ccccc2C(=O)N2CCN(c3ccc(C(=O)NS(=O)(=O)c4ccc(NCCSc5ccccc5)c(C(F)(F)F)c4)cc3)CC2)c1 [B2R029-01, 4-[4-[2-[2-(3-Ethoxyphenyl)ethynyl]benzoyl]piperazin-1-yl]-N-[4-(2-phenylsulfanylethylamino)-3-(trifluoromethyl)phenyl]sulfonylbenzamide]
ASMS ratio (%) (n = 2): 0.0%

CCOc1cncc(-c2ccccc2CN2CCN(c3ccc(C(=O)NCC(F)(F)F)nn3)CC2)c1 [B1K072-01, 6-[4-[[2-(5-Ethoxypyridin-3-yl)phenyl]methyl]piperazin-1-yl]-N-(2,2,2-trifluoroethyl)pyridazine-3-carboxamide]
ASMS ratio (%) n = 1 [2]: −0.6% | ASMS ratio (%) n = 2 [2]: 1.7%

CCOc1cccc(-c2cc(C(=O)N3CCN(c4ccc(C(=O)NS(=O)(=O)CCC(F)(F)F)cc4)CC3)cc(C(C)(C)C)c2)c1 [B2N037-01, 4-[4-[3-tert-Butyl-5-(3-ethoxyphenyl)benzoyl]piperazin-1-yl]-N-(3,3,3-trifluoropropylsulfonyl)benzamide]
ASMS ratio (%) (n = 1): 0.0% | ASMS ratio (%) (n = 2): 0.0%

CCOc1cncc(-c2ccc(CN3CCN(c4ccc(C(=O)Nc5ccc(OC)cc5)nn4)CC3)c3ccccc23)c1 [B1O092-01, 6-[4-[[4-(5-Ethoxypyridin-3-yl)naphthalen-1-yl]methyl]piperazin-1-yl]-N-(4-methoxyphenyl)pyridazine-3-carboxamide]
ASMS ratio (%) n = 1 [1]: 6.3% | ASMS ratio (%) n = 2 [1]: −1.4%

CCOc1cccc(-c2ccccc2CN2CCN(c3ccc(C(=O)NS(=O)(=O)c4ccc(NCCSc5ccccc5)c(C(F)(F)F)c4)nn3)CC2)c1 [B2R071-01, 6-[4-[[2-(3-Ethoxyphenyl)phenyl]methyl]piperazin-1-yl]-N-[4-(2-phenylsulfanylethylamino)-3-(trifluoromethyl)phenyl]sulfonylpyridazine-3-carboxamide]
ASMS ratio (%) (n = 1): 14.3% | ASMS ratio (%) (n = 2): −9.0%

CCOc1cncc(C#Cc2cc(C(=O)N3CCN(c4ccc(C(=O)NS(=O)(=O)c5ccc(NCCSc6ccccc6)c([N+](=O)[O-])c5)cc4)CC3)cc(C(F)(F)F)c2)c1 [B2Q042-01, 4-[4-[3-[2-(5-Ethoxypyridin-3-yl)ethynyl]-5-(trifluoromethyl)benzoyl]piperazin-1-yl]-N-[3-nitro-4-(2-phenylsulfanylethylamino)phenyl]sulfonylbenzamide]
ASMS ratio (%) n = 1 (AS-MS, mixture library, Bcl-2): 26.1% | ASMS ratio (%) n = 2 (AS-MS, mixture library, Bcl-2): 19.5%
